What was measured:
[1] = Soil half-life of herbicides
Source text: As used herein, “short-residual” denotes an herbicide having a median soil half-life of no greater than 50 days, such as less than 40 days or less than 30 days.
Imazamox is a short-residual imidazolinone herbicide having a soil half-life of about 20-30 days. Additionally, imazamethabenz methyl is a short-residual imidazolinone herbicide having a soil half-life of about 25-36 days.

[2] = system: Bromus tectorum (cheatgrass); experiment: Example 2 post-emergence field application, control of Bromus tectorum; type: in vivo; settings: Plateau 7 oz/A, Esplanade 200SC 7 oz/A, Raptor 6 oz/A, 0.25% NIS
Protocol: (§1) In the following Examples, desirable perennial grasses were treated to control the invasive annual grass Bromus tectorum (cheatgrass) either pre-emergence or post-emergence with either indaziflam, imazapic, imazamox, glyphosate, or combinations thereof. Imazapic, glyphosate, and combinations comprising either imazapic and/or glyphosate were used for purposes of comparison.
(§2) Table 3 summarizes the herbicidal efficacies (% Control), damage caused to desired perennial grasses (% Injury), and cover (% Cover) when the active ingredients of Table 1 were applied to perennial grasses of species Bromus inermis (smooth brome) and Agropyron smithii (western wheatgrass).
(§3) All treatments include 0.25% NIS.
(§4) Imazapic, indaziflam, imazamox, and a combination of indaziflam and imazamox were applied via a backpack research sprayer to perennial grasses to control Bromus tectorum post-emergence.

[3] = system: perennial grasses Bromus inermis (smooth brome) and Agropyron smithii (western wheatgrass); experiment: Example 2 post-emergence field application, injury and cover of desirable perennial grasses; type: in vivo
Protocol: as §1, §2, §3, §4

[4] = system: Bromus tectorum (cheatgrass); experiment: Example 3 pre-emergence field application, control and biomass of Bromus tectorum; type: in vivo; settings: for % Control Bromus tectorum / Biomass (kg/ha) Bromus tectorum: first year after treatment, 0.25% NIS
Protocol: as §1
(§5) Table 3 summarizes the herbicidal efficacies (% Control) and damage caused to desired perennial grasses (% Injury) during the first year after the active ingredients of Table 1 were applied to perennial grasses of species Hesperostipa comata (needle-and-thread), Aristida purpurea (purple three-awn) and Bouteloua gracilis (blue grama). Table 4 further sets forth the biomass in kilograms per hectare (kg/ha) of Bromus tectorum and perennial grass measured in the first year after treatment.
as §3
(§6) Imazapic, indaziflam, and a combination of indaziflam and imazamox were applied via a backpack research sprayer to desirable perennial grasses to control unwanted Bromus tectorum pre-emergence.

[5] = system: perennial grasses Hesperostipa comata (needle-and-thread), Aristida purpurea (purple three-awn) and Bouteloua gracilis (blue grama); experiment: Example 3 pre-emergence field application, injury and biomass of desirable perennial grasses; type: in vivo
Protocol: as §1, §5, §3, §6

[6] = Year 2 after treatment, post-emergence, Plateau 7 oz/A, Esplanade 200SC 7 oz/A, Raptor 6 oz/A, 0.25% NIS
[7] = in vivo, 1 year after treatment
[8] = Plateau 7 oz/A, Esplanade 200SC 7 oz/A, Raptor 6 oz/A
[9] = pre-emergence, first year after treatment, Plateau 7 oz/A, Esplanade 200SC 7 oz/A, Raptor 6 oz/A, 0.25% NIS
[10] = Year 1 after treatment, post-emergence, Plateau 7 oz/A, Esplanade 200SC 7 oz/A, Raptor 6 oz/A, 0.25% NIS
[11] = pre-emergence, first year after treatment, Esplanade 200SC 3.5 oz/A, 0.25% NIS
[12] = pre-emergence, first year after treatment, Esplanade 200SC 5 oz/A, 0.25% NIS

Row | Structure (SMILES) | Median soil half-life [1] [days] | % Control Bromus tectorum ([2]; Year 1 after treatment) [%] | % Control Bromus tectorum ([2]; Year 2 after treatment) [%] | % Cover Perennial grasses [3, 6] [%] | % Control Bromus tectorum [4, 8] [%] | Biomass (kg/ha) Bromus tectorum [4, 8] [kg/ha] | Biomass (kg/ha) Perennial grasses [5, 9] [kg/ha] | % Injury Perennial grasses [3, 10] [%] | % Injury Perennial grasses [3, 6] [%] | further results
1 | CC(C)C1(C)N=C(c2ncccc2C(=O)O)NC1=O (stereo not drawn) [Imazapyr] | 83 |  |  |  |  |  |  |  |  | 
2 | CCc1cnc(C2=NC(C)(C(C)C)C(=O)N2)c(C(=O)O)c1 (stereo not drawn) [Imazethapyr] | 75 |  |  |  |  |  |  |  |  | 
3 | Cc1cnc(C2=NC(=O)C(C)(C(C)C)N2)c(C(=O)O)c1 (stereo not drawn) [Imazapic] | 120 | 97 | 77 | 72 | 90 | 7 | 91 |  |  | % Injury Perennial grasses [3, 7]: 15%; % Injury Perennial grasses ([3]; in vivo, 2 year after treatment): 1%; % Injury Perennial grasses [5, 7]: 10%
4 | COCc1cnc(C2=NC(C)(C(C)C)C(=O)N2)c(C(=O)O)c1 (racemic) [Imazamox, 2-[(RS)-4-isopropyl-4-methyl-5-oxo-2-imidazolin-2-yl]-5-methoxymethylnicotinic acid] |  | 98 | 20 | 63 |  |  |  | 0 | 0 | 
5 | Cc1ccc2c(c1)[C@H](Nc1nc(N)nc(C(C)F)n1)[C@@H](C)C2 (mixture of isomers) [Indaziflam, N2-[(1R,2S)-2,3-dihydro-2,6-dimethyl-1H-inden-1-yl]-6-[(1RS)-1-fluoroethyl]-1,3,5-triazine-2,4-diamine] |  | 37 | 93 | 72 | 80 | 32 | 75 | 0 | 0 | % Control Bromus tectorum ([4]; Esplanade 200SC 3.5 oz/A): 72%; Biomass (kg/ha) Bromus tectorum ([4]; Esplanade 200SC 3.5 oz/A): 83 kg/ha; % Control Bromus tectorum ([4]; Esplanade 200SC 5 oz/A): 82%; Biomass (kg/ha) Bromus tectorum ([4]; Esplanade 200SC 5 oz/A): 18 kg/ha; control of invasive Bromus tectorum ([4]; indaziflam alone, span over the rates 3.5, 5 and 7 oz/A): 72-82%; % Injury Perennial grasses [5, 11]: 10%; Biomass (kg/ha) Perennial grasses [5, 11]: 54 kg/ha; % Injury Perennial grasses [5, 12]: 0%; Biomass (kg/ha) Perennial grasses [5, 12]: 63 kg/ha; % Injury Perennial grasses [5, 9]: 5%; Perennial grass biomass ([5]; pre-emergence, indaziflam alone, span over the rates 3.5, 5 and 7 oz/A): 54-75 kg/ha
